Test results: US8343953B2, “Pharmaceutical compounds” (Astex Therapeutics Limited, priority 2005, dated 2013)

Columns and labels:
P70S6 kinase (T412E) = target: T1, P70S6 kinase (T412E) (Homo sapiens, UniProt P23443, T412E); test: P70s6 radiometric assay; format: biochemical; details: ATP approximately 15 μM; enzyme 2 nM; read-out: IC50 (anti-P70S6K activity)
T1 construct: purchased Upstate 14-486
Protocol: P7086 enzyme is bought from Upstate and used at 2 nM in the assay.
In the phosphoryl transfer reaction, the ^33P-γ phosphate from ATP is transferred to the serine residue. The reaction mixture is transferred to a phosphocellulose filter plate where the peptide binds and the unused ATP is washed away. After washing, scintillant is added and the incorporated activity measured by scintillation counting.
S6 kinase substrate cocktail from Upstate (#20-122)
• 10 mM MOPS pH 7.0 • 0.1 mg/ml BSA • 0.001% Brij-35 • 0.5% glycerol • 0.2 mM EDTA • 10 mM MgCl2 • 0.01% β-mercaptoethanol • Made as a 10× stock, stored at […] in 2 ml aliquots • 15 μM ATP
ATP will break down over time, keep on ice as far as possible and use small aliquots to ensure the stock is fresh. • γ^33P-ATP APBiotech (BF1000) • 12.5% orthophosphoric acid • 0.5% orthophosphoric acid • Microscint 20 (Packard) Assay Preparation • Enzyme mix (per 1 ml—100 assay points): • 743.75 μl H2O • […] • 3.75 μl 10 mM ATP • 2.5 μl enzyme • Substrate mix (per 1 ml—100 assay points): • 250 μl S6 cocktail substrate • 750 μl H2O • 3.5 μl ^33P-ATP (BF1000 from APBiotech)
Compounds—prepare a dilution curve in DMSO in a polypropylene 96 well plate to 40× final assay concentration (final DMSO 2.5%).
In a polypropylene 96 well plate add in order: • 5 μl compound • 10 μl substrate mix • 10 μl enzyme mix
Final ATP concentration is approximately 15 μM. KM for ATP calculated to 47 uM radiometrically. Controls are “no compound” (DMSO only) and “no enzyme” (use 10 μl of the enzyme mix prior to adding enzyme). Cover with a plate seal (TopSeal A—Packard) or plastic lid from filter plate (moderate radiation barrier). Mix by gentle shaking. Incubate at room temperature for 50 minutes. Stop the reaction by adding 20 μl of 2% orthophosphoric acid.
Pre-wet the wells of a Millipore MAPH NOB plate with 50 μl of 0.5% orthophosphoric acid wash buffer. Filter the liquid through on a Millipore vacuum filtration unit. Transfer the whole of the stopped reaction to the wells. Filter through. Wash twice with 200 μl of 0.5% orthophosphoric acid wash buffer. Vacuum to near dryness. Remove the plate support and allow to the filters to dry further on tissue paper. Snap the plate into an adapter for the Packard TopCount. Add 20 μl of Microscint 20 scintillant, seal with a sheet of Topseal A and count for 30 s on the TopCount.
The compounds of examples 4, 13, 21, 22, 23, 42, 47, 71, 84, 85 and 98 were tested for anti-P70S6K activity (assay as described above): […]

ROCK-II (h) = ROCK-II (h) (Homo sapiens, UniProt O75116); test: ROCK-II (h) assay (radiometric, 33P-ATP filtermat); format: biochemical; details: read-out: IC50 (anti-ROCK-II activity)
Chain of ROCK-II (h) (O75116 whole entry): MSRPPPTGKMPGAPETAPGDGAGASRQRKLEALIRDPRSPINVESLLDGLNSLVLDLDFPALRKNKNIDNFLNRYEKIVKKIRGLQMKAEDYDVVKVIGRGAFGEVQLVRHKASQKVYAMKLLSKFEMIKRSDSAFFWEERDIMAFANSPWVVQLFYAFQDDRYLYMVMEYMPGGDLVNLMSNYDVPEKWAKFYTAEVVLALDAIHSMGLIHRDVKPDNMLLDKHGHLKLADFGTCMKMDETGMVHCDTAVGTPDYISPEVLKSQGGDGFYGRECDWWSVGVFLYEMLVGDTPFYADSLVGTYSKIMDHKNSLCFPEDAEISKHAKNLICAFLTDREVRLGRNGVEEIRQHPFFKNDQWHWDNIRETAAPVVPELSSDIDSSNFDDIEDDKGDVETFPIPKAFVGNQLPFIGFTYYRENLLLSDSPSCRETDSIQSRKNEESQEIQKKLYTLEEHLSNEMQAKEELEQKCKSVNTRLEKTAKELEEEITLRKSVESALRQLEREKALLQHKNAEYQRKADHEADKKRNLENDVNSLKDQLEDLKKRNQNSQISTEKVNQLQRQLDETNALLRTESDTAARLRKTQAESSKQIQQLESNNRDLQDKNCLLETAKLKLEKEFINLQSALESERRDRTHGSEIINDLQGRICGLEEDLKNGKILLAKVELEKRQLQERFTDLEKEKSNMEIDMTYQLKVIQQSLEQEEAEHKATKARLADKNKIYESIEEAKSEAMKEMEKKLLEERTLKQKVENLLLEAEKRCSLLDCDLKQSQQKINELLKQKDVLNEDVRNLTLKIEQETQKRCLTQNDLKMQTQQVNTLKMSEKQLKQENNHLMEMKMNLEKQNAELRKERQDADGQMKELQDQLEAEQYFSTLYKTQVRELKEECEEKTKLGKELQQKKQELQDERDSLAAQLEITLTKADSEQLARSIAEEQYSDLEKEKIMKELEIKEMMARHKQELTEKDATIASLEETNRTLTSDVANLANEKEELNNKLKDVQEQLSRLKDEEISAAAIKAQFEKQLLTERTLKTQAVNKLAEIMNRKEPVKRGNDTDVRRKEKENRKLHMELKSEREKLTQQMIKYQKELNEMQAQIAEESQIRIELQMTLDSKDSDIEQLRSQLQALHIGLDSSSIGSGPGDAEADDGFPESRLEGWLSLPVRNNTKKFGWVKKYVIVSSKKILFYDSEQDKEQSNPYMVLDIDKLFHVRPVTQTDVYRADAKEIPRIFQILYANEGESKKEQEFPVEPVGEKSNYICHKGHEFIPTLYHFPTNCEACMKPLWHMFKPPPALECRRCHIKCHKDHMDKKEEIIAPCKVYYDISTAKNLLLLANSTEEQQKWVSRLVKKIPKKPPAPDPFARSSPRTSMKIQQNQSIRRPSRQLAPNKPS
Protocol: ROCK-II (h) Assay Protocol
In a final reaction volume of 25 μl, ROCK-II (h) (5-10 mU) is incubated with 50 mM Tris pH 7.5, 0.1 mM EGTA, 30 μM […], 10 mM MgAcetate and [γ-^33P-ATP] (specific activity approx. 500 cpm/pmol, concentration as required). The reaction is initiated by the addition of the MgATP mix. After incubation for 40 minutes at room temperature, the reaction is stopped by the addition of 5 μl of a 3% phosphoric acid solution. 10 μl of the reaction is then spotted onto a P30 filtermat and washed three times for 5 minutes in 75 mM phosphoric acid and once in methanol prior to drying and scintillation counting.
The compounds of examples 14, 22, 23, 57, 59 and 84 were tested for anti-ROCK-II activity (assay as described above): […]

rat MM1 hepatoma cells = details: cited from earlier work
MM1 cells = details: continuous delivery using osmotic pumps; syngeneic rats; cited from earlier work
[1] = test system: isolated rabbit urinary bladder smooth muscle; details: cited from earlier work

T1 sequence (P23443 1-421 T412E limits assumed): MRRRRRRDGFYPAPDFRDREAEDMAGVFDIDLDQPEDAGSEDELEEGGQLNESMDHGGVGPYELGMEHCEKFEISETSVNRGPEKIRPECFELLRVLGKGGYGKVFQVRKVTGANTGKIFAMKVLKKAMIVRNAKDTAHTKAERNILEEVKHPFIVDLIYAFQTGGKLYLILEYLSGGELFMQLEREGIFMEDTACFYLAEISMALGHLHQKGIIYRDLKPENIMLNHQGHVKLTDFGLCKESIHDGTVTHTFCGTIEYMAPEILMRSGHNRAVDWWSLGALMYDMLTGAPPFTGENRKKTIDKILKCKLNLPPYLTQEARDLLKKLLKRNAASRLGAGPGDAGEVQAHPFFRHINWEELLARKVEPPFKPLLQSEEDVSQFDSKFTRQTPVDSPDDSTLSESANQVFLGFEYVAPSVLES

IC50 (P70S6 kinase (T412E)) [nM] | IC50 (ROCK-II (h)) [nM] | Compound | further results
< 100 | – | NCC(c1ccc(Cl)cc1)c1ccc(-c2cn[nH]c2)cc1 (stereo not drawn) [Example 4, 2-(4-Chloro-phenyl)-2-[4-(1H-pyrazol-4-yl)-phenyl]-ethylamine] | –
< 100 | – | NCCC(c1ccc(-c2cn[nH]c2)cc1)c1ccc(Cl)c(Cl)c1 (stereo not drawn) [Example 13, 3-(3,4-Dichloro-phenyl)-3-[4-(1H-pyrazol-4-yl)-phenyl]-propylamine] | –
– | < 100 | Clc1ccc(C2(c3ccc(-c4cn[nH]c4)cc3)CCNCC2)cc1 [Example 14, 4-(4-Chloro-phenyl)-4-[4-(1H-pyrazol-4-yl)-phenyl]-piperidine] | –
< 100 | – | CNCC(c1ccc(Cl)cc1)c1ccc(-c2cn[nH]c2)cc1 (stereo not drawn) [Example 21, {2-(4-Chloro-phenyl)-2-[4-(1H-pyrazol-4-yl)-phenyl]-ethyl}-methyl-amine] | –
< 100 | < 100 | CNC[C@@H](c1ccc(Cl)cc1)c1ccc(-c2cn[nH]c2)cc1 [Example 22, {2-(4-Chloro-phenyl)-2-[4-(1H-pyrazol-4-yl)-phenyl]-ethyl}-methyl-amine (R)] | –
< 100 | < 100 | CNC[C@H](c1ccc(Cl)cc1)c1ccc(-c2cn[nH]c2)cc1 [Example 23, {2-(4-Chloro-phenyl)-2-[4-(1H-pyrazol-4-yl)-phenyl]-ethyl}-methyl-amine (S)] | –
< 100 | – | CNCC(c1ccc(Cl)cc1)c1ccc(-c2cn[nH]c2)cc1 (stereo not drawn) [Example 42, {2-(4-Chloro-phenyl)-2-[4-(1H-pyrazol-4-yl)-phenyl]-ethyl}-methyl-amine] | –
< 100 | – | CNCC(c1ccc(Oc2cnccn2)cc1)c1ccc(-c2cn[nH]c2)cc1 (stereo not drawn) [Example 47, Methyl-{2-[4-(pyrazin-2-yloxy)-phenyl]-2-[4-(1H-pyrazol-4-yl)-phenyl]-ethyl}-amine] | –
– | < 100 | Clc1ccc(C(c2ccc(-c3cn[nH]c3)cc2)N2CCNCC2)cc1 (stereo not drawn) [Example 57, 1-{(4-Chloro-phenyl)-[4-(1H-pyrazol-4-yl)-phenyl]-methyl}-piperazine] | –
– | < 100 | CNCCC(Oc1cccc(Cl)c1)c1ccc(-c2cn[nH]c2)cc1 (stereo not drawn) [Example 59, {3-(3-Chloro-phenoxy)-3-[4-(1H-pyrazol-4-yl)-phenyl]-propyl}-methyl-amine] | –
< 100 | – | CNCC(Oc1ccc(Cl)cc1)c1ccc(-c2cn[nH]c2)cc1 (stereo not drawn) [Example 71, {2-(4-Chloro-phenoxy)-2-[4-(1H-pyrazol-4-yl)-phenyl]-ethyl}-methyl-amine] | –
< 100 | < 100 | NCC(O)(c1ccc(Cl)cc1)c1ccc(-c2cn[nH]c2)cc1 (stereo not drawn) [Example 84, 2-Amino-1-(4-chloro-phenyl)-1-[4-(1H-pyrazol-4-yl)-phenyl]-ethanol] | –
< 100 | – | Clc1ccc(C2(c3ccc(-c4cn[nH]c4)cc3)CCNCC2)cc1Cl [Example 85, 4-(3,4-Dichloro-phenyl)-4-[4-(1H-pyrazol-4-yl)-phenyl]-piperidine] | –
< 100 | – | NCC(c1ccc(-c2cn[nH]c2)cc1)c1ccc(Cl)c(Cl)c1 (stereo not drawn) [Example 98, 2-(3,4-Dichloro-phenyl)-2-[4-(1H-pyrazol-4-yl)-phenyl]-ethylamine] | –
– | – | C[C@@H](N)[C@H]1CC[C@H](C(=O)Nc2ccncc2)CC1 [Example Y-27632] | Rho-mediated activation of actomyosin (rat MM1 hepatoma cells): blocked; invasive activity of MM1 cells (rat MM1 hepatoma cells): blocked; dissemination of MM1 cells (MM1 cells): considerably reduced; bethanechol-evoked contractions [1]: attenuates
